Assay results published in US6767741B1, “Metal binding compounds and their use in cell culture medium compositions” (Invitrogen Corporation, priority 1999, dated 2004).

System: 293 cells
Assay: Growth of 293 cells in transferrin-free 293 SFM with metal binding compounds
Assay type: cell-based
Settings: third passage, control = 5 μg/mL human holo-transferrin, duplicate cultures
Description: Semi-confluent adherent cultures of 293 Cells (ATCC, CRL 1573) are readily adapted to suspension culture. The cells are first detached with a solution of Trypsin-EDTA (0.05% Trypsin, 0.53 mM Na4EDTA), and then resuspended in conventional medium supplemented with 10% FBS to inhibit the trypsin. The resuspended cells are centrifuged at 200×g for five minutes. The cell pellet is resuspended in 293 SFM (available from Life Technologies, Rockville, Md.) the formulation of which is described in WO 98/08934 which is specifically incorporated herein by reference. Alternatively, the cells may be detached with Versene (Na4EDTA, 0.53 mM) and resuspended in 293 SFM.
The initial seeding density of the 293 cells after conversion to suspension culture is 1×10^6 cells/mL. The cells are shaken on a rotary shaker at 150 rpm in a 37° C. incubator equilibrated with 8% CO2-92% air. When the cells reach a density of 1.5×10^6 cells/mL they are diluted with 293 SFM to a density of 3.0×10^5 cells/mL. Because 293 cells have a tendency to aggregate, the cells may be vortexed vigorously for approximately 45 seconds to obtain a predominantly single cell suspension at the time of passaging and counting. After several passages in suspension culture, the maximum achievable density may be determined.
The ability of metal binding compounds to support cellular growth was evaluated using 293 cells maintained in 293 SFM (Life Technologies, Rockville, Md.) without transferrin or metal binding compound. Stock cultures containing 5 μg/mL human holo-transferrin were prepared in 293 SFM. For metal binding compound evaluation, 293 cells were established in 125 mL shaker flasks at an initial viable seeding density of 2×10^5 cells/mL in a final volume of 20 mL. All cultures were maintained at 37° C. in humidified air containing 8% CO2. To eliminate transferrin carry-over effects, cells were subcultured at 4 day intervals for a total of three passages. At each subculturing, cells were seeded at a density of 2×10^5 cells/mL. Positive control cultures contained 5 μg/mL human holo-transferrin while negative control cultures were established in the absence of either transferrin or metal binding compound. Metal binding compound stocks were prepared at 0.1M-0.2M in ddH2O and solubilized when necessary using 5N NaOH or HCl. Iron complexes were established using 0.2M metal binding compound and iron stocks mixed 1:1 (v/v) and incubated for 5-10 minutes at 22° C. All solutions containing metal binding compounds were filter sterilized using a 0.22 μm Millex-GV filter prior to addition to transferrin and serum-free media.
In most cases, metal binding compounds were evaluated either alone or in combination with ferric chloride or ferrous sulfate at 25 μM, 50 μM and 100 μM. When used in combination, the metal binding compounds were used in equimolar concentration with iron ions. Values in the table represent the mean percentage of control growth for duplicate cultures determined at the third passage.
When added to the medium formulation un-complexed, the metal binding compound is listed alone, when added as a complex with a transition metal, the source of the transition metal is listed with the metal binding compound.

| SMILES | mean percentage of control growth (25 μM) | mean percentage of control growth (50 μM) | mean percentage of control growth (100 μM) |
| --- | --- | --- | --- |
| [Cl][Fe]([Cl])[Cl].c1ccc(-c2ccccn2)nc1 [2,2-Dipyridyl · Ferric Chloride] | 51% | 96% | 0% |
| O=C(O)c1ccccn1.O=S(=O)([O-])[O-].[Fe+2] [2-Pyridinecarboxylic Acid · Ferrous Sulfate] | 67% | 48% | 0% |
| O=S(=O)([O-])[O-].[Fe+2].[O-][n+]1cccc(O)c1 [3-Hydroxypyridine-N-Oxide · Ferrous Sulfate] | 104% | 58% | 0% |
| [O-][n+]1cccc(O)c1 [3-Hydroxypyridine-N-Oxide] | 4% | 4% | 4% |
| O=C(O)CN(CCN(CC(=O)O)CC(=O)O)CCN(CC(=O)O)CC(=O)O.[Cl][Fe]([Cl])[Cl] [Diethylenetriamine Penta-Acetic Acid · Ferric Chloride] | 79% | 96% | 102% |
| NC(CCC(=O)O)C(=O)O.[Cl][Fe]([Cl])[Cl] (stereo not drawn) [Glutamic Acid · Ferric Chloride] | 102% | 68% | 83% |
| NC(Cn1ccc(=O)c(O)c1)C(=O)O.[Cl][Fe]([Cl])[Cl] (stereo not drawn) [Mimosine · Ferric Chloride] | 64% | 55% | 80% |
| OC1C(O)C(O)C(O)C(O)C1O.[Cl][Fe]([Cl])[Cl] (stereo not drawn) [Myo-Inositol · Ferric Chloride] | 79% | 87% | 85% |
| CC(=O)N[C@@H](CS)C(=O)O.[Cl][Fe]([Cl])[Cl] [N-Acetyl-Cysteine · Ferric Chloride] | 88% | 82% | 52% |
| O=C(O)CN(CC(=O)O)CC(=O)O.O=S(=O)([O-])[O-].[Fe+2] [Nitriloacetic Acid · Ferrous Sulfate] | 75% | 95% | 0% |
| O=S(=O)([O-])[O-].OC[C@@H](O)[C@@H](O)[C@H](O)[C@@H](O)CO.[Fe+2] [Sorbitol · Ferrous Sulfate] | 58% | 69% | 83% |
